Experimental findings from patent publication US20240294465A1, “NOVEL ANTI-FIBROTIC DRUGS” (HELMHOLTZ ZENTRUM MUNCHEN - DEUTSCHES FORSCHUNGSZENTRUM FUR …, priority 2021, published 2024) are described below.

SMILES strings stand for the structures.

The test system of assay [1] is ECM deposition of collagen I, collagen V and fibulin 1 by phLFs+TGFβ1. Briefly: 3D ECM deposition assay (collagen I, collagen V, fibulin 1), dose-response and live imaging. Type of assay: cell-based, human. Conditions: phLFs+TGFβ1, during 48 hours. Here is the method: phLFs were cultured in DMEM F-12 medium with 20% fetal bovine serum (FBS) and antibiotic supplement as mentioned above. Cells were seeded with 6000 cells/well in 384-well CellCarrier plates (Perkin Elmer, Cat #6007550). Following overnight incubation, cells were starved in serum-reduced medium (1% FBS with 0.1 mM 2-phosphoascorbate (Sigma, Cat #49752)) for 24 h. Afterwards, cells were treated with TGFβ1 (1 ng/ml) or vehicle, and additionally small molecules or appropriate vehicle controls were added. […] Fluorescenceconjugation of the collagen type 1 antibody was done by using the AlexaFluor-555 Protein Labeling Kit (Invitrogen, Cat #A20174) according to manufacturer's instructions. […]
Following fixation, the automated imaging was achieved by using aconfocal laser scanning microscope (LSM710, Zeiss) with automated focus detection for three-dimensional image acquisition (1024 px×1024 px×9 px which equals a dimension of 1417 μm×1417 μm×16 μm). For post-acquisition analysis images were imported into IMARIS software (Bitplane) and volume detection or alternatively quantification of the mean fluorescence intensity, as well as Hoechst-stained cell nuclei were automatically counted by using Imaris' spot detection algorithm. […]

For assay [2], the system named is cellular contractility of phLFs. The assay can be described thus: 3D collagen gel contractility assay of primary human lung fibroblasts. It is filed as cell-based. Conditions: n=3 patient phLFs. Here is the method: In a 96-well imaging plate 50 μl 3D collagen gels were casted per well as described before (30), and 20.000 phLFs per well were seeded on top. Cells were treated with 1 ng/mL TGFβ1 and/or example 84. After 72 h cells were fixed with 4% paraformaldehyde. Collagen gels were imaged using an Axiolmager2 (Zeiss) and the gel diameter was determined using Zen Blue v2.5 (Zeiss).

The test system of assay [3] is PAI-1/SERPINE1. Briefly: Human precision cut lung slices (PCLS) with fibrotic cocktail: immunoblot of secreted PAI-1. Type of assay: cell-based. The settings on record: living human PCLS. The method, then:
PCLS were prepared as described before (31, 32). Shortly, PCLS were prepared from tumor-free peri-tumor tissue. The lung tissue was inflated with 3% agarose solution and solidified at 4° C. Tissue blocks were cut in μm thick PCLS using a vibration microtome Hyrax V50 (Zeiss). PCLS were cultured in DMEM F-12 medium and treated with a profibrotic cocktail, as described before (31), or vehicle, as well as with small molecules or vehicles for 7 days. After culturing and treatments, supernatants were harvested. PCLS were […] washed in PBS and protein was extracted as previously described (33). Briefly, PCLS were pooled in an Eppendorf tube and lysed in 500 μl ice-cold RIPA buffer (50 mM Tris-CI pH 7.4, 150 mM NaCl, 1% NP40, 0.25% Na-deoxycholate) containing 1× Roche complete mini protease inhibitor cocktail (Roche, Cat. #11697498001). After an incubation of 2 hours rotating at 4° C., the lung slices were removed from the lysates and the protein content was measured.
Cells were scraped off the plastic dish directly into 200 μl ice-cold RIPA buffer containing 1× Roche complete mini protease inhibitor cocktail. […] CXCL/IL-8 concentrations were determined using Human IL-8/CXCL8 DuoSet ELISA (DY208-05) according to the manufacturer's protocol.
In general terms: Immunoblotting shows a protein as a band on a membrane.

Take `CCCCOc1ccccc1NC(=O)/C=C/c1ccc(OC)c(OC)c1` [Example 84, (E)-N-(2-butoxyphenyl)-3-(3,4-dimethoxyphenyl)acrylamide]: the “dynamic deposition of collagen I and fibulin 1 (MFI, live imaging)” value in assay [1] is “inhibition of ECM deposition”. Also, in assay [2], the “cellular contractility (collagen gel)” value is listed as “significant inhibition of cellular contractility”. Besides, the “secreted PAI-1/SERPINE1” value in assay [3] is on record as “diminution of secreted pro-fibrotic PAI-1/SERPINE1”.
